Data reported in the supplement of paper PMC4932681.
Structures can show the parent of a compound that is named as a salt.

Tests used:
ZR-75-1 Tam1 [1] = experiment: drug sensitivity score (DSS) (DSS (dimensionless)); higher = more sensitive; extreme values may be limits of the assay; settings: 4-OH-tamoxifen in medium 1 µM; 72 h
Procedure, shortened: (§1)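 After seeding into 384-well plates with library drugs at five concentrations spanning a 10 000-fold range, breast cancer cell lines and their resistant derivatives were incubated 72 h at 37 °C. Resistant lines received medium with 1 μM of the selecting drug. CellTiter-Glo signal was read on a PHERAstar and scaled to vehicle-only and positive controls. Drug sensitivity score, relative IC50 (the curve midpoint) and top-dose inhibition came from logistic fits run in the Breeze pipeline.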

MCF-7 Tam1 [2] = experiment: as above; settings: 4-OH-tamoxifen in medium 1 µM; 72 h
Procedure, shortened: as §1

MCF-7 [3] = experiment: as above; settings: 72 h
Procedure, shortened: as §1

BT-474 Tam2 [4] = experiment: as above; settings: 4-OH-tamoxifen in medium 1 µM; 72 h
Procedure, shortened: as §1

ZR-75-1 [5] = experiment: as above; settings: 72 h
Procedure, shortened: as §1

ZR-75-1 Tam2 [6] = experiment: as above; settings: 4-OH-tamoxifen in medium 1 µM; 72 h
Procedure, shortened: as §1

BT-474 Tam1 [7] = experiment: as above; settings: 4-OH-tamoxifen in medium 1 µM; 72 h
Procedure, shortened: as §1

T-47D Tam2 [8] = experiment: as above; settings: 4-OH-tamoxifen in medium 1 µM; 72 h
Procedure, shortened: as §1

T-47D [9] = experiment: as above; settings: 72 h
Procedure, shortened: as §1

T-47D Tam1 [10] = experiment: as above; settings: 4-OH-tamoxifen in medium 1 µM; 72 h
Procedure, shortened: as §1

BT-474 [11] = experiment: as above; settings: 72 h
Procedure, shortened: as §1

ZR-75-1 Tam1 [12] = experiment: relative IC50 (midpoint of fitted logistic curve, plateau may be below 50% inhibition; CellTiter-Glo viability); higher = less potent; settings: 4-OH-tamoxifen in medium 1 µM; 72 h
Procedure, shortened: as §1

MCF-7 Tam1 [13] = experiment: as above; settings: 4-OH-tamoxifen in medium 1 µM; 72 h
Procedure, shortened: as §1

MCF-7 [14] = experiment: as above; settings: 72 h
Procedure, shortened: as §1

ZR-75-1 [15] = experiment: as above; settings: 72 h
Procedure, shortened: as §1

ZR-75-1 Tam2 [16] = experiment: as above; settings: 4-OH-tamoxifen in medium 1 µM; 72 h
Procedure, shortened: as §1

BT-474 Tam1 [17] = experiment: as above; settings: 4-OH-tamoxifen in medium 1 µM; 72 h
Procedure, shortened: as §1

T-47D Tam2 [18] = experiment: as above; settings: 4-OH-tamoxifen in medium 1 µM; 72 h
Procedure, shortened: as §1

T-47D [19] = experiment: as above; settings: 72 h
Procedure, shortened: as §1

T-47D Tam1 [20] = experiment: as above; settings: 4-OH-tamoxifen in medium 1 µM; 72 h
Procedure, shortened: as §1

BT-474 [21] = experiment: as above; settings: 72 h
Procedure, shortened: as §1

BT-474 Tam2 [22] = experiment: as above; settings: 4-OH-tamoxifen in medium 1 µM; 72 h
Procedure, shortened: as §1

For `O=C(Nc1c[nH]nc1-c1nc2ccc(CN3CCOCC3)cc2[nH]1)NC1CC1` [AT9283], the drug sensitivity score (ZR-75-1 Tam1 [1]) was 0, the drug sensitivity score (MCF-7 Tam1 [2]) was 0 and the drug sensitivity score (MCF-7 [3]; 4-OH-tamoxifen in medium 0 µM) was 0. It also gave a drug sensitivity score (MCF-7 [3]; 4-OH-tamoxifen in medium 1 µM) of 0, a drug sensitivity score (BT-474 Tam2 [4]) of 0 and a drug sensitivity score (ZR-75-1 [5]; 4-OH-tamoxifen in medium 0 µM) of 0. It also gave a drug sensitivity score (ZR-75-1 [5]; 4-OH-tamoxifen in medium 1 µM) of 0, a drug sensitivity score (ZR-75-1 Tam2 [6]) of 0 and a drug sensitivity score (BT-474 Tam1 [7]) of 0. For the same compound, the drug sensitivity score (T-47D Tam2 [8]) was 0, the drug sensitivity score (T-47D [9]; 4-OH-tamoxifen in medium 0 µM) was 0 and the drug sensitivity score (T-47D [9]; 4-OH-tamoxifen in medium 1 µM) was 0. It also gave a drug sensitivity score (T-47D Tam1 [10]) of 0, a drug sensitivity score (BT-474 [11]; 4-OH-tamoxifen in medium 0 µM) of 0 and a drug sensitivity score (BT-474 [11]; 4-OH-tamoxifen in medium 1 µM) of 0. The “relative IC50” value (ZR-75-1 Tam1 [12]) was > 1000 nM, the “relative IC50” value (MCF-7 Tam1 [13]) was > 1000 nM and the “relative IC50” value (MCF-7 [14]; 4-OH-tamoxifen in medium 0 µM) was > 1000 nM. For the same compound, the “relative IC50” value (MCF-7 [14]; 4-OH-tamoxifen in medium 1 µM) was > 1000 nM, the “relative IC50” value (ZR-75-1 [15]; 4-OH-tamoxifen in medium 0 µM) was > 1000 nM and the “relative IC50” value (ZR-75-1 [15]; 4-OH-tamoxifen in medium 1 µM) was > 1000 nM. For the same compound, the “relative IC50” value (ZR-75-1 Tam2 [16]) was > 1000 nM, the “relative IC50” value (BT-474 Tam1 [17]) was > 1000 nM and the “relative IC50” value (T-47D Tam2 [18]) was > 1000 nM. For the same compound, the “relative IC50” value (T-47D [19]; 4-OH-tamoxifen in medium 0 µM) was > 1000 nM, the “relative IC50” value (T-47D [19]; 4-OH-tamoxifen in medium 1 µM) was > 1000 nM and the “relative IC50” value (T-47D Tam1 [20]) was > 1000 nM. The “relative IC50” value (BT-474 [21]; 4-OH-tamoxifen in medium 0 µM) was > 1000 nM and the “relative IC50” value (BT-474 [21]; 4-OH-tamoxifen in medium 1 µM) was > 1000 nM.

Compound `C[C@@]1(C(=O)Nc2ccc(F)nc2)CCCN1c1nc(Nc2cc(C3CC3)n[nH]2)c2cccn2n1` has a drug sensitivity score (ZR-75-1 Tam1 [1]) of 0, a drug sensitivity score (MCF-7 Tam1 [2]) of 13.2 and a drug sensitivity score (MCF-7 [3]; 4-OH-tamoxifen in medium 0 µM) of 17.7. For the same compound, the drug sensitivity score (MCF-7 [3]; 4-OH-tamoxifen in medium 1 µM) was 21, the drug sensitivity score (BT-474 Tam2 [4]) was 0 and the drug sensitivity score (ZR-75-1 [5]; 4-OH-tamoxifen in medium 0 µM) was 0. For the same compound, the drug sensitivity score (ZR-75-1 [5]; 4-OH-tamoxifen in medium 1 µM) was 0, the drug sensitivity score (ZR-75-1 Tam2 [6]) was 0 and the drug sensitivity score (BT-474 Tam1 [7]) was 0.49. The drug sensitivity score (T-47D Tam2 [8]) was 6.16, the drug sensitivity score (T-47D [9]; 4-OH-tamoxifen in medium 0 µM) was 5.37 and the drug sensitivity score (T-47D [9]; 4-OH-tamoxifen in medium 1 µM) was 7.74. The drug sensitivity score (T-47D Tam1 [10]) was 4.88, the drug sensitivity score (BT-474 [11]; 4-OH-tamoxifen in medium 0 µM) was 0.215 and the drug sensitivity score (BT-474 [11]; 4-OH-tamoxifen in medium 1 µM) was 0.473. For the same compound, the “relative IC50” value (ZR-75-1 Tam1 [12]) was > 10000 nM, the “relative IC50” value (MCF-7 Tam1 [13]) was 197 nM and the “relative IC50” value (MCF-7 [14]; 4-OH-tamoxifen in medium 0 µM) was 78.9 nM. The “relative IC50” value (MCF-7 [14]; 4-OH-tamoxifen in medium 1 µM) was 80.2 nM, the “relative IC50” value (BT-474 Tam2 [22]) was > 10000 nM and the “relative IC50” value (ZR-75-1 [15]; 4-OH-tamoxifen in medium 0 µM) was > 10000 nM. The “relative IC50” value (ZR-75-1 [15]; 4-OH-tamoxifen in medium 1 µM) was > 10000 nM, the “relative IC50” value (ZR-75-1 Tam2 [16]) was > 10000 nM and the “relative IC50” value (T-47D Tam2 [18]) was 1140 nM. The “relative IC50” value (T-47D [19]; 4-OH-tamoxifen in medium 0 µM) was 921 nM, the “relative IC50” value (T-47D [19]; 4-OH-tamoxifen in medium 1 µM) was 210 nM and the “relative IC50” value (T-47D Tam1 [20]) was 1160 nM.

For `O=C(/C=C/c1cccnc1)NCCCCC1CCN(C(=O)c2ccccc2)CC1` [Daporinad (FK-866 HCl)], the drug sensitivity score (ZR-75-1 Tam1 [1]) was 0, the drug sensitivity score (MCF-7 Tam1 [2]) was 0 and the drug sensitivity score (MCF-7 [3]; 4-OH-tamoxifen in medium 0 µM) was 15.8. For the same compound, the drug sensitivity score (MCF-7 [3]; 4-OH-tamoxifen in medium 1 µM) was 10.4, the drug sensitivity score (BT-474 Tam2 [4]) was 1.29 and the drug sensitivity score (ZR-75-1 [5]; 4-OH-tamoxifen in medium 0 µM) was 0. It also gave a drug sensitivity score (ZR-75-1 [5]; 4-OH-tamoxifen in medium 1 µM) of 0, a drug sensitivity score (ZR-75-1 Tam2 [6]) of 0 and a drug sensitivity score (BT-474 Tam1 [7]) of 5.63. The drug sensitivity score (T-47D Tam2 [8]) was 18.9, the drug sensitivity score (T-47D [9]; 4-OH-tamoxifen in medium 0 µM) was 24.1 and the drug sensitivity score (T-47D [9]; 4-OH-tamoxifen in medium 1 µM) was 20.7. For the same compound, the drug sensitivity score (T-47D Tam1 [10]) was 27.2, the drug sensitivity score (BT-474 [11]; 4-OH-tamoxifen in medium 0 µM) was 0 and the drug sensitivity score (BT-474 [11]; 4-OH-tamoxifen in medium 1 µM) was 8.73. The “relative IC50” value (ZR-75-1 Tam1 [12]) was > 1000 nM, the “relative IC50” value (MCF-7 Tam1 [13]) was > 1000 nM and the “relative IC50” value (MCF-7 [14]; 4-OH-tamoxifen in medium 0 µM) was 19 nM. For the same compound, the “relative IC50” value (MCF-7 [14]; 4-OH-tamoxifen in medium 1 µM) was 54.1 nM, the “relative IC50” value (ZR-75-1 [15]; 4-OH-tamoxifen in medium 0 µM) was > 1000 nM and the “relative IC50” value (ZR-75-1 [15]; 4-OH-tamoxifen in medium 1 µM) was > 1000 nM. The “relative IC50” value (ZR-75-1 Tam2 [16]) was > 1000 nM, the “relative IC50” value (BT-474 Tam1 [17]) was 94.3 nM and the “relative IC50” value (T-47D Tam2 [18]) was 14.7 nM. The “relative IC50” value (T-47D [19]; 4-OH-tamoxifen in medium 0 µM) was 7.21 nM, the “relative IC50” value (T-47D [19]; 4-OH-tamoxifen in medium 1 µM) was 13.2 nM and the “relative IC50” value (T-47D Tam1 [20]) was 3.87 nM. For the same compound, the “relative IC50” value (BT-474 [21]; 4-OH-tamoxifen in medium 1 µM) was 74.3 nM.

`Cn1nnc2c(C(N)=O)ncn2c1=O` [Temozolomide] showed a drug sensitivity score (ZR-75-1 Tam1 [1]) of 0, a drug sensitivity score (MCF-7 Tam1 [2]) of 0 and a drug sensitivity score (MCF-7 [3]; 4-OH-tamoxifen in medium 0 µM) of 0. The drug sensitivity score (MCF-7 [3]; 4-OH-tamoxifen in medium 1 µM) was 0, the drug sensitivity score (BT-474 Tam2 [4]) was 0 and the drug sensitivity score (ZR-75-1 [5]; 4-OH-tamoxifen in medium 0 µM) was 0.0165. The drug sensitivity score (ZR-75-1 [5]; 4-OH-tamoxifen in medium 1 µM) was 0, the drug sensitivity score (ZR-75-1 Tam2 [6]) was 0 and the drug sensitivity score (BT-474 Tam1 [7]) was 0.313. It also gave a drug sensitivity score (T-47D Tam2 [8]) of 0, a drug sensitivity score (T-47D [9]; 4-OH-tamoxifen in medium 0 µM) of 0 and a drug sensitivity score (T-47D [9]; 4-OH-tamoxifen in medium 1 µM) of 0. For the same compound, the drug sensitivity score (T-47D Tam1 [10]) was 0, the drug sensitivity score (BT-474 [11]; 4-OH-tamoxifen in medium 0 µM) was 0 and the drug sensitivity score (BT-474 [11]; 4-OH-tamoxifen in medium 1 µM) was 0. The “relative IC50” value (ZR-75-1 Tam1 [12]) was > 10000 nM, the “relative IC50” value (MCF-7 Tam1 [13]) was > 10000 nM and the “relative IC50” value (MCF-7 [14]; 4-OH-tamoxifen in medium 0 µM) was > 10000 nM. For the same compound, the “relative IC50” value (MCF-7 [14]; 4-OH-tamoxifen in medium 1 µM) was > 10000 nM, the “relative IC50” value (BT-474 Tam2 [22]) was > 10000 nM and the “relative IC50” value (ZR-75-1 [15]; 4-OH-tamoxifen in medium 1 µM) was > 10000 nM. For the same compound, the “relative IC50” value (ZR-75-1 Tam2 [16]) was > 10000 nM, the “relative IC50” value (T-47D Tam2 [18]) was > 10000 nM and the “relative IC50” value (T-47D [19]; 4-OH-tamoxifen in medium 0 µM) was > 10000 nM. For the same compound, the “relative IC50” value (T-47D [19]; 4-OH-tamoxifen in medium 1 µM) was > 10000 nM, the “relative IC50” value (T-47D Tam1 [20]) was > 10000 nM and the “relative IC50” value (BT-474 [21]; 4-OH-tamoxifen in medium 0 µM) was > 10000 nM. The “relative IC50” value (BT-474 [21]; 4-OH-tamoxifen in medium 1 µM) was > 10000 nM.
